Laboratory results as given in US20210205272A1, “DOSING REGIMENS FOR TREATMENT OF SOLID TUMORS HAVING ONE OR MORE GENETIC ALTERATIONS IN FGFR1, FGFR2, AND/OR FGFR3” (DEBIOPHARM INTERNATIONAL, S.A., priority 2018, published 2021).

Assays:
[1] = clinical; conditions: in vivo
[2] = test system: advanced solid tumors harboring FGFR 1, 2 or 3 gene alterations; experiment: Phase I dose escalation Debio 1347-101: tumor response by RECIST 1.1; format: in vivo, human
[3] = test system: advanced solid malignancies of any histological tumor type harboring an FGFR 1, 2 or 3 fusion; experiment: Expansion part of Debio 1347-101 phase I study: tumor response by RECIST 1.1; format: in vivo, human; conditions: 80 mg once daily
Experimental: The primary objective of this expansion phase is to confirm the safety profile at the RP2D of 80 mg once daily.
As of January 2019, two patients achieved a BOR of PR by investigator assessment according to RECIST 1.1 criteria, one suffering from a cholangiocarcinoma harboring a FGFR2-TACC2 fusion and one suffering from a colon cancer harboring a FGFR2-RP11-89K10.1 fusion.

[4] = 10 patients with confirmed FGFR fusions, doses ≥60 mg/day
[5] = confirmed FGFR fusions, doses ≥60 mg/day
[6] = one patient, intrahepatic cholangiocarcinoma, FGFR2 deletion of exon 5

Cc1nc2cc(-n3ncc(C(=O)c4cc5ccccc5[nH]4)c3N)ccc2[nH]1 [Debio 1347, 5-amino-1-(2-methyl-1H-benzo[d]imidazol-5-yl)-1H-pyrazol-4-yl 1H-indol-2-yl ketone]
half-life ([1]; human, po): 11.5 h
hyperphosphatemia dose relation [1]: dose-dependent
patients achieving PR [2, 4]: 3 patients
patients achieving disease stabilization [2, 4]: 5 patients
patients with progressive disease ([2]; 57 evaluable patients): 35 patients
patients with stable disease ([2]; 57 evaluable patients): 16 patients
tumor type, FGFR alteration and dose of the six PRs ([2]; 57 evaluable patients): two had urothelial carcinoma (FGFR3 fusion—80, 150 mg), the others uterine (FGFR1 amplified—30 mg), cervical (FGFR2 amplified—80 mg), colon cancer (FGFR1 amplified—110 mg) or cholangiocarcinoma (FGFR2 mutation—110 mg)
patients with partial response (PR), overall ([2]; 57 patients evaluable for tumor response): 6 patients
disease control rate (DCR) overall ([2]; all evaluable patients): 38.6%
response after independent centralized radiological review ([2]; cholangiocarcinoma, FGFR2 mutation, 110 mg): confirmed completed response (CR)
disease control rate (DCR) [2, 5]: 80%
median treatment duration in patients with disease control [2, 5]: 34 weeks
range of treatment duration in patients with disease control [2, 5]: 24-47 weeks
antitumor activity ([2]; mainly FGFR2 or 3 gene alterations incl. fusion/translocation, 80 mg and 110 mg daily): Encouraging antitumor activity
stable disease patients with reduced target lesion size ≤30% at least once on-treatment ([2]; of 16 with stable disease): 10 patients
patients with progressive disease per clinical assessment in absence of radiographic evidence ([2]; of 35 with progressive disease): 13 patients
duration of partial response [2, 6]: up to 48 weeks
response upon independent radiological review [2, 6]: complete response
drug-related deaths (58 treated patients): no death was considered drug-related
maximum tolerated dose (MTD) (escalated up to 150 mg, ≤2 DLTs at the same dose level): not formally reached
TEAE highest severity grade 1 (human, in vivo): 4 (6.9%) patients
TEAE highest severity grade 2 (human, in vivo): 17 (29.3%) patients
TEAE highest severity grade 3 (human, in vivo): 28 (48.3%) patients
TEAE highest severity grade 4 (human, in vivo): 2 (3.4%) patients
number of serious adverse effects (SAEs) (human, in vivo): 39 SAEs
patients experiencing serious adverse effects (SAEs) (human, in vivo): 20 patients
patients requiring a dose reduction (human, in vivo): 20%
patients requiring a dose reduction after the 28-day DLT period (human, in vivo): 7 out of 9
patients requiring dose modifications due to adverse events (human, in vivo): 30 (51.7%) patients
SAEs deemed possibly study drug related (DLTs) (in vivo): two
TEAEs most often severe (grade >2) (in vivo): hyperphosphatemia, anemia, hyponatremia, and dyspnea
dose reduction required (in vivo): no dose reduction was required at all
most common TEAEs with an incidence ≥25% (in vivo): hyperphosphatemia, diarrhea, nausea, fatigue, constipation, decreased appetite, nail changes, and dry mouth
safety profile (in vivo): tolerable and manageable safety profile
TEAE highest severity grade 5 (of 58 treated patients): 7 (12.1%) patients
patients died from disease progression (of 58 treated patients): 21 patients
tumor volume reduction ([3]; cholangiocarcinoma FGFR2-ATAD2 fusion, after 6 weeks of treatment): about 7%
patients with BOR of PR by investigator assessment ([3]; cholangiocarcinoma FGFR2-TACC2 fusion and colon cancer FGFR2-RP11-89K10.1 fusion, as of January 2019): two
best response ([3]; one patient, cholangiocarcinoma FGFR2-ATAD2 fusion): disease stabilization (SD)
